Measured values from patent US9469650B2, “Melampomagnolide B derivatives” (BOARD OF TRUSTEES OF THE UNIVERSITY OF ARKANSAS, priority 2013, dated 2016).
Like-named read-outs stand apart in the source and are kept apart here.

Key:
[1] = system: CAKI-1; assay: panel of 60 human tumor cell lines, growth inhibition (Renal Cancer); settings: Homo sapiens
[2] = system: A498; assay: as above; settings: Homo sapiens
[3] = system: KM12; assay: panel of 60 human tumor cell lines, growth inhibition (Colon Cancer)
[4] = system: SK-MEL-28; assay: panel of 60 human tumor cell lines, growth inhibition (Melanoma); settings: Homo sapiens
[5] = system: HL-60(TB)
[6] = system: PC-3; assay: panel of 60 human tumor cell lines, growth inhibition (Prostate Cancer); settings: Homo sapiens
[7] = system: HOP-92; assay: panel of 60 human tumor cell lines, growth inhibition (Non-Small Cell Lung Cancer); settings: Homo sapiens
[8] = system: RXF 393; assay: panel of 60 human tumor cell lines, growth inhibition (Renal Cancer); settings: Homo sapiens
[9] = system: SK-MEL-2; assay: panel of 60 human tumor cell lines, growth inhibition (Melanoma); settings: Homo sapiens
[10] = system: MDA-MB-468; assay: panel of 60 human tumor cell lines, growth inhibition (Breast Cancer); settings: Homo sapiens
[11] = system: SF-539; assay: panel of 60 human tumor cell lines, growth inhibition (CNS Cancer); settings: Homo sapiens
[12] = system: NCI-H23; assay: panel of 60 human tumor cell lines, growth inhibition (Non-Small Cell Lung Cancer); settings: Homo sapiens
[13] = system: MOLT-4; assay: panel of 60 human tumor cell lines, growth inhibition (Leukemia); settings: Homo sapiens
[14] = system: DU-145; assay: panel of 60 human tumor cell lines, growth inhibition (Prostate Cancer); settings: Homo sapiens
[15] = system: NCI/ADR-RES; assay: panel of 60 human tumor cell lines, growth inhibition (Ovarian Cancer); settings: Homo sapiens
[16] = system: IGROV1; assay: as above; settings: Homo sapiens
[17] = system: UACC-62; assay: panel of 60 human tumor cell lines, growth inhibition (Melanoma); settings: Homo sapiens
[18] = system: COLO 205; assay: panel of 60 human tumor cell lines, growth inhibition (Colon Cancer); settings: Homo sapiens
[19] = system: SNB-19; assay: panel of 60 human tumor cell lines, growth inhibition (CNS Cancer); settings: Homo sapiens

SMILES: C=C1C(=O)O[C@H]2[C@H]1CC/C(COC(=O)NCCN1CCCC1)=C\CC[C@@]1(C)O[C@@H]21 [JVM 59, ((1aR,7aS,10aS,10bS,E)-1a-methyl-8-methylene-9-oxo-1a,2,3,6,7,7a,8,9,10a,10b-decahydrooxireno[2′,3′:9,10]cyclodeca[1,2-b]furan-5-yl)methyl-(2-(pyrrolidin-1-yl)ethyl)carbamate]
- GI50 ([1]; CAKI-1): 6.86 µM
- CC50 ([1]; CAKI-1, read-out: LC50): 51.8 µM
- IC (TGI) ([1]; CAKI-1, read-out: TGI): 21.2 µM
- GI50 ([2]; A498): 20.4 µM
- CC50 ([2]; A498, read-out: LC50): 95.2 µM
- IC (TGI) ([2]; A498, read-out: TGI): 44.1 µM
- GI50 ([3]; Homo sapiens, KM12): 23.9 µM
- CC50 ([3]; Homo sapiens, KM12, read-out: LC50): > 100 µM
- TGI ([3]; KM12, five dose): 7.00E−5
- Percent Growth ([3]; KM12, Log10 Concentration −4.0): −17%
- Percent Growth ([3]; KM12, Log10 Concentration −5.0): 90%
- Percent Growth ([3]; KM12, Log10 Concentration −6.0): 96%
- Percent Growth ([3]; KM12, Log10 Concentration −7.0): 95%
- Percent Growth ([3]; KM12, Log10 Concentration −8.0): 96%
- GI50 ([4]; SK-MEL-28): 12.3 µM
- CC50 ([4]; SK-MEL-28, read-out: LC50): 52 µM
- IC (TGI) ([4]; SK-MEL-28, read-out: TGI): 25.3 µM
- Percent Growth ([5]; Log10 Concentration −4.0): −63%
- Percent Growth ([5]; Log10 Concentration −5.0): 22%
- Percent Growth ([5]; Log10 Concentration −6.0): 95%
- Percent Growth ([5]; Log10 Concentration −7.0): 96%
- Percent Growth ([5]; Log10 Concentration −8.0): 88%
- GI50 ([6]; PC-3): 15.7 µM
- CC50 ([6]; PC-3, read-out: LC50): 70.1 µM
- IC (TGI) ([6]; PC-3, read-out: TGI): 33.2 µM
- GI50 ([7]; HOP-92, HOP-92, five dose): 2.25 µM
- GI50 ([7]; HOP-92, HOP-92, 5-dose assay): 2.25 µM
- CC50 ([7]; HOP-92, read-out: LC50): 32.3 µM
- IC (TGI) ([7]; HOP-92, read-out: TGI): 7.86 µM
- GI50 ([8]; RXF 393, RXF 393, five dose): 4.08 µM
- GI50 ([8]; RXF 393, RXF 393, 5-dose assay): 4.08 µM
- CC50 ([8]; RXF 393, read-out: LC50): 47.9 µM
- IC (TGI) ([8]; RXF 393, read-out: TGI): 16.8 µM
- GI50 ([9]; SK-MEL-2): 14 µM
- CC50 ([9]; SK-MEL-2, read-out: LC50): 62.4 µM
- IC (TGI) ([9]; SK-MEL-2, read-out: TGI): 29.5 µM
- GI50 ([10]; MDA-MB-468): 2.3 µM
- CC50 ([10]; MDA-MB-468, read-out: LC50): 42.9 µM
- IC (TGI) ([10]; MDA-MB-468, read-out: TGI): 9.06 µM
- GI50 ([11]; SF-539): 15 µM
- CC50 ([11]; SF-539, read-out: LC50): 54.1 µM
- IC (TGI) ([11]; SF-539, read-out: TGI): 28.5 µM
- GI50 ([12]; NCI-H23): 16.4 µM
- CC50 ([12]; NCI-H23, read-out: LC50): 80.4 µM
- IC (TGI) ([12]; NCI-H23, read-out: TGI): 36.3 µM
- GI50 ([13]; MOLT-4): 3.48 µM
- CC50 ([13]; MOLT-4, read-out: LC50): 89.7 µM
- IC (TGI) ([13]; MOLT-4, read-out: TGI): 17.5 µM
- GI50 ([14]; DU-145): 7.42 µM
- CC50 ([14]; DU-145, read-out: LC50): 46.3 µM
- IC (TGI) ([14]; DU-145, read-out: TGI): 20.2 µM
- GI50 [15]: > 100 µM
- CC50 ([15]; read-out: LC50): > 100 µM
- IC (TGI) ([15]; read-out: TGI): > 100 µM
- GI50 ([16]; IGROV-1): 4.09 µM
- CC50 ([16]; IGROV-1, read-out: LC50): 68.5 µM
- IC (TGI) ([16]; IGROV-1, read-out: TGI): 16.2 µM
- GI50 ([17]; UACC-62): 13.3 µM
- CC50 ([17]; UACC-62, read-out: LC50): 55.8 µM
- IC (TGI) ([17]; UACC-62, read-out: TGI): 27.3 µM
- GI50 ([18]; COLO 205): 4.78 µM
- CC50 ([18]; COLO 205, read-out: LC50): 45 µM
- IC (TGI) ([18]; COLO 205, read-out: TGI): 16.8 µM
- GI50 ([19]; SNB-19): 59.1 µM
- CC50 ([19]; SNB-19, read-out: LC50): > 100 µM
- IC (TGI) ([19]; SNB-19, read-out: TGI): > 100 µM
